Drawing on patent US20230227435A1, “SMALL MOLECULE MODULATORS OF IL-17” (LEO PHARMA A/S, priority 2020, published 2023), this text covers EC50 for 23 molecules.

The assay addresses T1, human IL-17AA (Homo sapiens, UniProt Q16552).
T1 construct: host or cells: HEK (human embryonic kidney) cells
T1 sequence (Q16552 24-155) 1: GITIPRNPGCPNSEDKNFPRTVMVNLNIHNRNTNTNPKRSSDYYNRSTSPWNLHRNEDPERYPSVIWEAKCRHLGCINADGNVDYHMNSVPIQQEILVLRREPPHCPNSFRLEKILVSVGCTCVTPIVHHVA
T1 sequence (Q16552 24-155) 2: T1 sequence (Q16552 24-155) 1
In words: IL-8 release assay in human epithelial keratinocytes adult (HEKa). The assay is classed as cell-based. To be noted: HEKa cells; 3 ng/mL HEK-human IL-17AA + 10 ng/mL human TNFalpha; 68-72 hours; IL-8 by HTRF; read-out: Rel EC50 IL-8 release assay. Here is the method:
Example 8: IL-8 Release Assay in Human Epithelial Keratinocytes Adult (HEKa)
Keratinocytes were seeded at 3500 cells/well in 384-well ViewPlates (Perkin Elmer) in Epilife medium (Thermo Fisher) containing human keratinocyte growth supplement (HKGS) without hydrocortisone and incubated in a humid incubator at 37° C., 5% CO2, overnight. The following day growth medium was removed and 25 μl fresh Epilife medium was added. 75 nL test compound in100% DMSO was added into each well reserved for test compounds, by the use of acoustic pipetting. The remaining wells received an equal volume of DMSO only, as vehicle control, or terfenadine in DMSO, as a positive control for any cytotoxic compounds. Subsequently, another 25 μL Epilife medium was added to each well. Finally, wells containing test compounds and wells prepared to yield maximum stimulation received 25 μL of 9 ng/mL recombinant, human embryonic kidney cell (HEK)-derived human IL-17AA+30 ng/mL human TNF-alpha, in Epilife medium. Wells prepared to define 100% inhibition of IL-17 effects received 25 μL of 30 ng/mL human TNF-alpha alone, in Epilife medium. Final concentrations were 3 ng/mL HEK-human IL-17AA+10 ng/mL human TNFalpha (maximum stimulation) and 10 ng/mL human TNFalpha alone (100% inhibition, Emax), respectively. Cells were incubated for 68-72 hours in the incubator. IL-8 released from the cells was measured by the use of a commercial homogenous time-resolved fluorescence (HTRF) assay (CisBio). 2 μL cell culture supernatant was transferred to a 384-well Proxiplate. 5 μL HTRF reagent was added and the plates were incubated sealed in the dark for 3-22 hours at room temperature. Time-resolved fluorescence was read at 665 vs 620 nm, with excitation at 320 nm, and IL-8 levels were calculated as percent of controls. Reduction of the amount of secreted IL-8 indicates decreased IL-17 signaling. Concentration response curves were fitted by the use of a four-parameter logistic equation. Relative IC50 and Emax were reported from curves showing acceptable fit (r^2>0.9). Cytotoxicity was measured in the cell-containing Viewplates following addition of 7 μL PrestoBlue (Thermo Fisher) and incubation for 2.5-3 hours at room temperature, by measuring fluorescence at 615 nm (excitation at 535 nm). Fluorescence was directly proportional to the amount of metabolic activity. Reduction of fluorescence signal indicated cytotoxicity.
Compounds of the present invention were tested in the IL-8 release assay in human epithelial keratinocytes.
As to `Cc1n[nH]c(C)c1-c1ccc(NC(=O)C(c2nnc(-c3ccnn3C(C)C)[nH]2)C(C2CC2)C2CC2)c(F)c1` (centres unmarked) [Example 12, 3,3-dicyclopropyl-N-[4-(3,5-dimethyl-1H-pyrazol-4-yl)-2-fluoro-phenyl]-2-[5-(2-isopropylpyrazol-3-yl)-4H-1,2,4-triazol-3-yl]propanamide], the EC50 amounted to 140 nM.
As for `Cc1nonc1-c1nnc(C(C(=O)Nc2ccc(-c3c(C)n[nH]c3C)cc2)C(C2CC2)C2CC2)[nH]1` (centres unmarked) [Example 13, 3,3-dicyclopropyl-N-[4-(3,5-dimethyl-1H-pyrazol-4-yl)phenyl]-2-[5-(4-methyl-1,2,5-oxadiazol-3-yl)-4H-1,2,4-triazol-3-yl]propanamide], the figure is 170 nM; as for `Cc1n[nH]c(C)c1-c1ccc(NC(=O)C(c2nnc(-c3c(F)cnn3C)[nH]2)C(C2CC2)C2CC2)cc1` (centres unmarked) [Example 14, 3,3-dicyclopropyl-N-[4-(3,5-dimethyl-1H-pyrazol-4-yl)phenyl]-2-[5-(4-fluoro-2-methyl-pyrazol-3-yl)-4H-1,2,4-triazol-3-yl]propanamide], 300 nM.
Consider `Cc1n[nH]c(C)c1-c1ccc(NC(=O)C(c2nnc(Cc3cccnc3)[nH]2)C(C2CC2)C2CC2)cc1` (centres unmarked) [Example 15, 3,3-dicyclopropyl-N-[4-(3,5-dimethyl-1H-pyrazol-4-yl)phenyl]-2-[5-(3-pyridylmethyl)-4H-1,2,4-triazol-3-yl]propanamide], for which the half-maximal effective concentration (EC50) turned out to be 350 nM.
As for `Cc1n[nH]c(C)c1-c1ccc(NC(=O)C(c2nnc(Cc3cc[nH]n3)[nH]2)C(C2CC2)C2CC2)cc1` (centres unmarked) [Example 16, 3,3-dicyclopropyl-N-[4-(3,5-dimethyl-1H-pyrazol-4-yl)phenyl]-2-[5-(1H-pyrazol-3-ylmethyl)-4H-1,2,4-triazol-3-yl]propanamide], the figure is 1500 nM.
Take `Cc1n[nH]c(C)c1-c1ccc(NC(=O)C(c2nnc(Cc3ccccc3)[nH]2)C(C2CC2)C2CC2)cc1` (centres unmarked) [Example 17, 2-(5-benzyl-4H-1,2,4-triazol-3-yl)-3,3-dicyclopropyl-N-[4-(3,5-dimethyl-1H-pyrazol-4-yl)phenyl]propanamide]: the EC50 was 240 nM.
As for `Cc1n[nH]c(C)c1-c1ccc(NC(=O)C(c2nnc(-c3ccccc3Cl)[nH]2)C(C2CC2)C2CC2)cc1` (centres unmarked) [Example 18, 2-[5-(2-chlorophenyl)-4H-1,2,4-triazol-3-yl]-3,3-dicyclopropyl-N-[4-(3,5-dimethyl-1H-pyrazol-4-yl)phenyl]propanamide], the EC50 is 310 nM.
As for `COc1ccccc1-c1nnc(C(C(=O)Nc2ccc(-c3c(C)n[nH]c3C)cc2)C(C2CC2)C2CC2)[nH]1` (centres unmarked) [Example 19, 3,3-dicyclopropyl-N-[4-(3,5-dimethyl-1H-pyrazol-4-yl)phenyl]-2-[5-(2-methoxyphenyl)-4H-1,2,4-triazol-3-yl]propanamide], the figure is 620 nM; as for `Cc1n[nH]c(C)c1-c1ccc(NC(=O)C(c2nnc(-c3cnn(C)c3)[nH]2)C(C2CC2)C2CC2)cc1` (centres unmarked) [Example 20, 3,3-dicyclopropyl-N-[4-(3,5-dimethyl-1H-pyrazol-4-yl)phenyl]-2-[5-(1-methylpyrazol-4-yl)-4H-1,2,4-triazol-3-yl]propanamide], 990 nM; as for `Cc1n[nH]c(C)c1-c1ccc(NC(=O)C(c2nnc(-c3ccnn3C)[nH]2)C(C2CC2)C2CC2)cc1` (centres unmarked) [Example 21, 3,3-dicyclopropyl-N-[4-(3,5-dimethyl-1H-pyrazol-4-yl)phenyl]-2-[5-(2-methylpyrazol-3-yl)-4H-1,2,4-triazol-3-yl]propanamide], 200 nM.
In the case of `Cc1n[nH]c(C)c1-c1ccc(NC(=O)C(c2nnc(-c3ccn(C)c(=O)c3)[nH]2)C(C2CC2)C2CC2)cc1` (centres unmarked) [Example 22, 3,3-dicyclopropyl-N-[4-(3,5-dimethyl-1H-pyrazol-4-yl)phenyl]-2-[5-(1-methyl-2-oxo-4-pyridyl)-4H-1,2,4-triazol-3-yl]propanamide], the EC50 turned out to be 430 nM.
Take `CCn1nccc1-c1nnc(C(C(=O)Nc2ccc(-c3c(C)n[nH]c3C)cc2)C(C2CC2)C2CC2)[nH]1` (centres unmarked) [Example 23, 3,3-dicyclopropyl-N-[4-(3,5-dimethyl-1H-pyrazol-4-yl)phenyl]-2-[5-(2-ethylpyrazol-3-yl)-4H-1,2,4-triazol-3-yl]propanamide]: the EC50 was 59 nM.
For `Cc1n[nH]c(C)c1-c1ccc(NC(=O)C(c2nnc(-c3ccn[nH]3)[nH]2)C(C2CC2)C2CC2)cc1` (centres unmarked) [Example 24, 3,3-dicyclopropyl-N-[4-(3,5-dimethyl-1H-pyrazol-4-yl)phenyl]-2-[5-(1H-pyrazol-5-yl)-4H-1,2,4-triazol-3-yl]propanamide], the EC50 worked out at 690 nM.
For `Cc1nn(C)cc1-c1nnc(C(C(=O)Nc2ccc(-c3c(C)n[nH]c3C)cc2)C(C2CC2)C2CC2)[nH]1` (centres unmarked) [Example 25, 3,3-dicyclopropyl-N-[4-(3,5-dimethyl-1H-pyrazol-4-yl)phenyl]-2-[5-(1,3-dimethylpyrazol-4-yl)-4H-1,2,4-triazol-3-yl]propanamide] the value was 230 nM; for `Cc1n[nH]c(C)c1-c1ccc(NC(=O)C(c2nnc(-c3ccnn3CC(F)(F)F)[nH]2)C(C2CC2)C2CC2)cc1` (centres unmarked) [Example 26, 3,3-dicyclopropyl-N-[4-(3,5-dimethyl-1H-pyrazol-4-yl)phenyl]-2-[5-[2-(2,2,2-trifluoroethyl)pyrazol-3-yl]-4H-1,2,4-triazol-3-yl]propanamide], 24 nM; for `Cc1n[nH]c(C)c1-c1ccc(NC(=O)C(c2nnc(-c3ccnn3C3CCC3)[nH]2)C(C2CC2)C2CC2)cc1` (centres unmarked) [Example 27, 2-[5-(2-cyclobutylpyrazol-3-yl)-4H-1,2,4-triazol-3-yl]-3,3-dicyclopropyl-N-[4-(3,5-dimethyl-1H-pyrazol-4-yl)phenyl]propanamide], 32 nM.
As for `Cc1cc(-c2nnc(C(C(=O)Nc3ccc(-c4c(C)n[nH]c4C)cc3)C(C3CC3)C3CC3)[nH]2)ccn1` (centres unmarked) [Example 28, 3,3-dicyclopropyl-N-[4-(3,5-dimethyl-1H-pyrazol-4-yl)phenyl]-2-[5-(2-methyl-4-pyridyl)-4H-1,2,4-triazol-3-yl]propanamide], the figure is 140 nM; as for `Cc1n[nH]c(C)c1-c1ccc(NC(=O)C(c2nnc(-c3c(C)n[nH]c3C)[nH]2)C(C2CC2)C2CC2)cc1` (centres unmarked) [Example 29, 3,3-dicyclopropyl-N-[4-(3,5-dimethyl-1H-pyrazol-4-yl)phenyl]-2-[5-(3,5-dimethyl-1H-pyrazol-4-yl)-4H-1,2,4-triazol-3-yl]propanamide], 1400 nM.
For `Cc1n[nH]c(C)c1-c1ccc(NC(=O)C(c2nnc(-c3cnn(C(C)C)c3)[nH]2)C(C2CC2)C2CC2)cc1` (centres unmarked) [Example 30, 3,3-dicyclopropyl-N-[4-(3,5-dimethyl-1H-pyrazol-4-yl)phenyl]-2-[5-(1-isopropylpyrazol-4-yl)-4H-1,2,4-triazol-3-yl]propanamide] the value was 270 nM; for `Cc1n[nH]c(C)c1-c1ccc(NC(=O)C(c2nnc(-c3cccnc3)[nH]2)C(C2CC2)C2CC2)cc1` (centres unmarked) [Example 31, 3,3-dicyclopropyl-N-[4-(3,5-dimethyl-1H-pyrazol-4-yl)phenyl]-2-[5-(3-pyridyl)-4H-1,2,4-triazol-3-yl]propanamide], 430 nM; for `Cc1n[nH]c(C)c1-c1ccc(NC(=O)C(c2nnc(-c3c(C)noc3C)[nH]2)C(C2CC2)C2CC2)cc1` (centres unmarked) [Example 32, 3,3-dicyclopropyl-2-[5-(3,5-dimethylisoxazol-4-yl)-4H-1,2,4-triazol-3-yl]-N-[4-(3,5-dimethyl-1H-pyrazol-4-yl)phenyl]propanamide], 910 nM.
`Cc1n[nH]c(C)c1-c1ccc(NC(=O)C(c2nnc(-c3ccncc3)[nH]2)C(C2CC2)C2CC2)cc1` (centres unmarked) [Example 33, 3,3-dicyclopropyl-N-[4-(3,5-dimethyl-1H-pyrazol-4-yl)phenyl]-2-[5-(4-pyridyl)-4H-1,2,4-triazol-3-yl]propanamide]: the EC50 was 480 nM.
For `COc1ccc(-c2nnc(C(C(=O)Nc3ccc(-c4c(C)n[nH]c4C)cc3)C(C3CC3)C3CC3)[nH]2)cn1` (centres unmarked) [Example 34, 3,3-dicyclopropyl-N-[4-(3,5-dimethyl-1H-pyrazol-4-yl)phenyl]-2-[5-(6-methoxy-3-pyridyl)-4H-1,2,4-triazol-3-yl]propanamide] the value was 430 nM.
